# Key:
# Type in all cases: cell-based
# [1] = system: Klebsiella; assay: microbe, parasite or virus in culture
# Protocol: These patterns were the results of Klebsiella cultures having been grown on glucose (^14C-label). In nature, and in waste treatment facilities, many organic carbon compounds, both simple and complex, would be available for degradation. The known uncouplers and BNS were tested for their ability to increase C02 evolution from cultures exposed to the common substrates lactate, glycine, glycerol, and a denatured protein mixture. […] This was expected in the case of glycine but it was thought that a more complex protein might be degraded and portions used for some energyproduction. It was hoped that these compounds might be a more representative group (more abundant in waste treatment) than simple sugars for determining the extent of activity of BNS. […] Lactate, a common intermediate in microbial metabolism, and a compound which would normally be used as an oxidizable substrate for running the cytochrome chain, gave a more representative response. BNS treated cultures gave increased C02 blowoff (an increase as high as 130% at 5 µg/mL) as did both known uncouplers. […] When glycerol was used as the labeled substrate, BNS treated cultures gave increased C02 at concentrations up to 5 µg/mL.
# The procedure used for determining the CO2 evolution was similar to the procedure described previously. Cells having been grown overnight in MSM and glucose were centrifuged and resuspended in MSM + glucose (cold) and used as inoculum. No other cold carbon source (unlabeled) was added. ^14C-labeled substrates (lactate, glycerol, etc.) obtained from New England Nuclear were used and supplied the radiolabeled carbon for the detection of ^14CO2. BNS was utilized in concentrations of 0.5 - 10 µg/mL. Fixed concentrations of 5 µg/mL CCCP and DNP were included for comparative purposes. The following data were obtained in these experiments.
# [2] = system: Klebsiella; assay: Total organic carbon removal in nutrient broth shake flasks; conditions: for % Org. Carbon Removal / Tot. Inorg. Carbon / Tot. Org. Carbon / Total Carbon: 5 Hours
# Protocol: (§1) Experiments to look at the above conclusions in depth were performed. In these experiments, cultures of Klebsiella were challenged with various concentrations of BNS and the effects on C02 evolution from glucose, viability, TOC (Total Organic Carbon), TIC (Total Inorganic Carbon) production, removal, and DO (Dissolved Oxygen) removal were determined. Concentrations of BNS from 0.05 to 100 µg/mL were used. […] CO2 evolution decreased after 5 gg/mL. […] The viability dropped off after that with 99% inhibition at concentrations somewhere between 10 - 20 µg/mL. Organic carbon removal gave the most puzzling pattern. […] CO2 was produced, however, as reflected by the C02 blowoff experiments and the TIC data. The organic carbon being oxidized (removed) must have been cancelled out by an organic carbon addition caused by limited bacterial lysis. This phenomenon was investigated again. […] It appeared that 5 ppm BNS would be the maximum concentration that could be used for the desired effect, with the majority of favorable results occurring in the 0.05 - 2 ppm range.
# The experiments coordinating the measurements of C02 evolution, TOC reduction, viable count, and dissolved oxygen (DO) reduction were performed as follows: C02 evolution by Klebsiella was measured as described previously using a narrowed set of BNS concentrations. At the same time, Klebsiella cells grown overnight in nutrient broth were standardized into an inoculum of 250 Klett units. These cells were used to inoculate 19 mL quantities of fresh nutrient broth (1 mL inoculum) in baffled shake flasks. These shake flasks were placed into water bath shakers at 37°C and allowed to shake for 5 hours. Concentrations of BNS equivalent to the C02 blowoff experiment were added to the flasks at the beginning of the experiment. Controls containing no BNS were included for comparisons. Total organic carbon measurements were taken after 5 hours incubation. Viable counts were done at 1 hour, 3 hours, and 5 hours. A parallel experiment was performed using the same setup except that after BNS additions, the flasks were shaken for 30 minutes and then held stationary. DO measurements were taken at 5 hours incubation with the use of a YSI Model 54A oxygen meter.
# [3] = system: Klebsiella
# Protocol: as §1
# At 0.05 µg/mL level, TOC removal was equivalent to the untreated control. When BNS concentrations of 0.5 µg/mL were used, TOC removal ceased and in the second series of experiments, TOC levels increased sharply at 0.5 - 2 µg/mL concentrations of BNS. Similar results were obtained when BNS was used to treat bacteria growing in the glucose salts medium. No increases in TOC removal were seen. The TOC concentration increased rapidly at BNS concentration of 0.5 - 2 ppm only to fall back to control levels at 5 ppm. The cells then added TOC to the medium again from 5 - 1000 µg/mL concentrations of BNS. […]
# (§2) The experiments coordinating the measurements of C02 evolution, TOC reduction, viable count, and dissolved oxygen (DO) reduction were performed as follows: C02 evolution by Klebsiella was measured as described previously using a narrowed set of BNS concentrations. […] These cells were used to inoculate 19 mL quantities of fresh nutrient broth (1 mL inoculum) in baffled shake flasks. […]
# [4] = system: Klebsiella; assay: Dissolved oxygen removal in nutrient broth; conditions: 5 hours
# Protocol: Experiments to look at the above conclusions in depth were performed. In these experiments, cultures of Klebsiella were challenged with various concentrations of BNS and the effects on C02 evolution from glucose, viability, TOC (Total Organic Carbon), TIC (Total Inorganic Carbon) production, removal, and DO (Dissolved Oxygen) removal were determined. Concentrations of BNS from 0.05 to 100 µg/mL were used. […] CO2 evolution decreased after 5 gg/mL. […] The viability dropped off after that with 99% inhibition at concentrations somewhere between 10 - 20 µg/mL. Organic carbon removal gave the most puzzling pattern. […] CO2 was produced, however, as reflected by the C02 blowoff experiments and the TIC data. The organic carbon being oxidized (removed) must have been cancelled out by an organic carbon addition caused by limited bacterial lysis. This phenomenon was investigated again. […]
# as §2
structure (smiles),measurement,setting,value
"O=[N+]([O-])C(Br)=Cc1ccccc1 [BNS, beta-bromo-beta-nitrostyrene]",activation at 5 µg/mL,"[1]; Klebsiella, 14C-lactate as labeled substrate, 5 µg/mL, read-out: increase in C02 blowoff",130%
same,concentrations giving increased C02,[1]; glycerol as the labeled substrate,up to 5 µg/mL
same,effect on CO2 evolution,[1]; glycine as the labeled substrate,either no effect or a toxic effect
same,% Org. Carbon Removal,[2]; BNS 0.05 µg/mL,37%
same,Tot. Inorg. Carbon,[2]; BNS 0.05 µg/mL,145 µg/mL
same,Tot. Org. Carbon,[2]; BNS 0.05 µg/mL,"2,205 µg/mL"
same,Total Carbon,[2]; BNS 0.05 µg/mL,"2,350 µg/mL"
same,% Org. Carbon Removal,[2]; BNS 0.1 µg/mL,+9%
same,Tot. Inorg. Carbon,[2]; BNS 0.1 µg/mL,155 µg/mL
same,Tot. Org. Carbon,[2]; BNS 0.1 µg/mL,"3,845 µg/mL"
same,Total Carbon,[2]; BNS 0.1 µg/mL,"4,000 µg/mL"
same,% Org. Carbon Removal,[2]; BNS 0.5 µg/mL,1%
same,Tot. Inorg. Carbon,[2]; BNS 0.5 µg/mL,145 µg/mL
same,Tot. Org. Carbon,[2]; BNS 0.5 µg/mL,"3,455 µg/mL"
same,Total Carbon,[2]; BNS 0.5 µg/mL,"3,600 µg/mL"
same,% Org. Carbon Removal,[2]; BNS 1.0 µg/mL,6%
same,Tot. Inorg. Carbon,[2]; BNS 1.0 µg/mL,120 µg/mL
same,Tot. Org. Carbon,[2]; BNS 1.0 µg/mL,"3,280 µg/mL"
same,Total Carbon,[2]; BNS 1.0 µg/mL,"3,400 µg/mL"
same,% Org. Carbon Removal,[2]; BNS 2 µg/mL,+16%
same,Tot. Inorg. Carbon,[2]; BNS 2 µg/mL,96 µg/mL
same,Tot. Org. Carbon,[2]; BNS 2 µg/mL,"4,054 µg/mL"
same,Total Carbon,[2]; BNS 2 µg/mL,"4,150 µg/mL"
same,% Org. Carbon Removal,[2]; BNS 5 µg/mL,+35%
same,Tot. Inorg. Carbon,[2]; BNS 5 µg/mL,63 µg/mL
same,Tot. Org. Carbon,[2]; BNS 5 µg/mL,"4,737 µg/mL"
same,Total Carbon,[2]; BNS 5 µg/mL,"4,800 µg/mL"
same,% Org. Carbon Removal,[2]; BNS 10 µg/mL,+11%
same,Tot. Inorg. Carbon,[2]; BNS 10 µg/mL,12 µg/mL
same,Tot. Org. Carbon,[2]; BNS 10 µg/mL,"3,888 µg/mL"
same,Total Carbon,[2]; BNS 10 µg/mL,"3,900 µg/mL"
same,% Org. Carbon Removal,[2]; BNS 20 µg/mL,+19%
same,Tot. Inorg. Carbon,[2]; BNS 20 µg/mL,9 µg/mL
same,Tot. Org. Carbon,[2]; BNS 20 µg/mL,"4,191 µg/mL"
same,Total Carbon,[2]; BNS 20 µg/mL,"4,200 µg/mL"
same,% Org. Carbon Removal,[2]; BNS 50 µg/mL,+31%
same,Tot. Inorg. Carbon,[2]; BNS 50 µg/mL,7 µg/mL
same,Tot. Org. Carbon,[2]; BNS 50 µg/mL,"4,593 µg/mL"
same,Total Carbon,[2]; BNS 50 µg/mL,"4,600 µg/mL"
same,% Org. Carbon Removal,[2]; BNS 100 µg/mL,+102%
same,Tot. Inorg. Carbon,[2]; BNS 100 µg/mL,7 µg/mL
same,Tot. Org. Carbon,[2]; BNS 100 µg/mL,"7,093 µg/mL"
same,Total Carbon,[2]; BNS 100 µg/mL,"7,100 µg/mL"
same,concentrations resulting in increases in TOC,"[2]; nutrient broth, 5 hours",≥ 2 µg/mL
same,concentration for 99% inhibition of viability,[3],10000 to 20000 ng/mL
same,concentrations at which cells retained viability equal to the control level,[3],up to 2 µg/mL
same,concentrations of significant toxicity,[3],5000 to 10000 ng/mL
same,concentrations at which oxygen was consumed at levels approaching control values,[4],up to 2 ppm

# From patent publication EP0162545A2, “Enhanced bioconversion processes” (BETZ EUROPE, INC., priority 1984, dated 1985)
